Laboratory results as given in patent publication US20220411414A1, “INHIBITORS FOR THE B-CATENIN/B-CELL LYMPHOMA 9 (BCL9) PROTEIN-PROTEIN INTERACTION” (H. LEE MOFFITT CANCER CENTER AND RESEARCH INSTITUTE, INC., priority 2018, published 2022).

Tested on: TOPFlash (three wild-type Tcf binding sites) luciferase reporter
Experiment: Wnt-responsive TOPFlash luciferase reporter assay, SW480
Format: cell-based
Details: Homo sapiens, 24 h treatment, read-out: TOPFlash IC50 ± SD SW480
Method: The TOPFlash luciferase reporter assay (in which the luciferase reporter has three wild-type Tcf4 binding sites) was performed with 4 and 5. Cell transfection and luciferase assay. FuGENE6 (E269A, Promega) 96 well plate format was used for the transfection of HEK293 and SW480 cells according to the manufacturer's instruction. HEK293 cells were co-transfected with 45 ng of TOPFlash or FOPFlash reporter gene, 135 ng pcDNA3.1-β-catenin, and 20 ng of pCMV-RL normalization reporter gene. SW480 cells were co-transfected with 60 ng of the TOPFlash or FOPFlash reporter gene and 40 ng of pCMV-RL normalization reporter. Cells were cultured in DMEM and 10% FBS at 37° C. for 24 h, and different concentrations of inhibitors or DMSO was added. After 24 h, the luciferase reporter activity was measured using the Dual-Glo system (E2940, Promega). Normalized luciferase activity in response to the treatment with 4 and 5 was compared with that obtained from the cells treated with DMSO. Experiments were performed in triplicate.

Q: How did the IC50 turn out when Cl.Cl.O=C(Nc1ccc(O[C@@H]2CCNC2)c(-c2cccc(-c3nn[nH]n3)c2)c1)c1ccc(O[C@H]2CCNC2)c(-c2ccc(F)c(F)c2)c1 [Compound 4, 3′,4′-difluoro-6-(((S)-pyrrolidin-3-yl)oxy)-N-(6-(((R)-pyrrolidin-3-yl)oxy)-3′-(2H-tetrazol-5-yl)-[1,1′-biphenyl]-3-yl)-[1,1′-biphenyl]-3-carboxamide dihydrochloride] was run?
A: 25 ± 2.7 µM
